In ChEMBL document CHEMBL1157539, “Thousands of chemical starting points for antimalarial lead identification” (Nature, 2010) one finds XC50 data, which are given here for 87 compounds.

Structures are written as SMILES.

The subject of this assay is Plasmodium falciparum. The assay can be described thus: GSK_TCMDC: Inhibition of Plasmodium falciparum 3D7 in whole erythrocytes, using parasite LDH activity as an index of growth. Type of assay: functional, organism-based.

Regarding `CC(=O)C1(c2ccccc2)CCN(CCC2(c3ccc(Cl)c(Cl)c3)CN(C(=O)Nc3cccc(C(F)(F)F)c3)CCO2)CC1` (stereo not drawn), the XC50 (Plasmodium falciparum, 3D7) stood at 1050 nM. Turning to `CCCCCCSc1nnc(COc2cccc3ccccc23)n1-c1ccc(OC)cc1`, the XC50 (Plasmodium falciparum, 3D7) was determined as 45.2 nM. With `O=C(Nc1ccc(Cl)cc1)Nc1ccc(Cn2ncc(N3CCCNCC3)c(Cl)c2=O)cc1`, under “Plasmodium falciparum, 3D7”, the XC50 is 783 nM. The same measure, in the same setting: in the case of `C=CCn1ccc2c3c(N)nc(N)nc3ccc21` it was 70 nM.

For `N=C(N)c1ccc(-c2cc3ccc(C(=N)N)cc3[nH]2)cc1`, where the note is “Plasmodium falciparum, 3D7”, the XC50 came out at 59.9 nM.

For the compound `CCS(=O)(=O)c1ccc(OC)c(Nc2nccc(-c3c(-c4cccc(NC(=O)c5c(F)cccc5F)c4)nn4ncccc34)n2)c1`, the XC50 (Plasmodium falciparum, 3D7) is 1030 nM. The compound `COc1ccc2ncc(F)c(CCN3CCC(NCc4ccc5c(c4)CCO5)CC3)c2n1` gave an XC50 (Plasmodium falciparum, 3D7) of 677 nM. As to `O=C(NOCCOc1ccccc1)c1ccccc1`, the XC50 (Plasmodium falciparum, 3D7) stood at 317 nM. Same read-out and setting: in the case of `CCc1cc(NC2CCN(C)CC2)nc(Nc2cccc(OC)c2)n1` it was 856 nM.

Regarding `O=C(Nc1ccnc(N2CCCN(Cc3cccc(O)c3)CC2)c1)c1ccc(F)cc1`, the XC50 (Plasmodium falciparum, 3D7) amounted to 1480 nM. With `COc1cc(C=NN=c2cc(C)[nH]c3ccccc23)cc(OC)c1OC`, the XC50 (Plasmodium falciparum, 3D7) turned out to be 730 nM. In turn, `O=c1cc(NCCCNCc2ccc(Cl)c(Cl)c2)[nH]c2ccc(Oc3ccccc3)cc12` yielded an XC50 (Plasmodium falciparum, 3D7) of 850 nM. On to `NCCCNc1ccnc2cc(Cl)ccc12`, for which the XC50 (Plasmodium falciparum, 3D7) was found to be 305 nM. In the case of `CN(C)c1ccc(OCCCCCCOc2ccccc2)cc1`, under “Plasmodium falciparum, 3D7”, the XC50 was 496 nM. The compound `COc1c(C2CCN(CCCCNC(=O)c3ccc(-c4ccc(C#N)cc4)c(O)c3)CC2)ccc2c1CCCC2` had an XC50 (Plasmodium falciparum, 3D7) of 199 nM. Same read-out and setting: in the case of `c1ccc(Oc2ccc(Nc3ccnc4ccc(-c5ccccn5)cc34)cc2)cc1` it was 1100 nM. For the setting “Plasmodium falciparum, 3D7”, `Cc1cc(NC(=O)Nc2cccc(N(C)C)c2)c2ccccc2n1` displayed an XC50 of 201 nM.

In turn, `Cc1ccc(OCC2CCN(c3ncc(C(=O)NC4CC4)cc3Cl)CC2)cc1` gave an XC50 (Plasmodium falciparum, 3D7) of 1090 nM.

`Cc1cc(C(=O)NC2CCN(CC3(c4ccc(Cl)cc4)CCC3)CC2)on1` yielded an XC50 (Plasmodium falciparum, 3D7) of 92 nM.

As for `Cc1cc(Nc2ccc(O)cc2)nc2cccc(O)c12`, where the note is “Plasmodium falciparum, 3D7”, the XC50 came to 742 nM. For the setting “Plasmodium falciparum, 3D7”, `O=C1CCCN1CCCNCc1ccc(-c2cccc(-c3nc4ccccc4[nH]3)c2)cc1` yielded an XC50 of 1020 nM.

Compound `CCc1c(CCNCC/C=C/CCNCCc2ccc(OC)c(OC)c2CC)ccc(OC)c1OC` came in with an XC50 (Plasmodium falciparum, 3D7) of 771 nM. Consider `FC(F)(F)c1ccc2[nH]c(-c3ccc(-c4cccc(CNCCc5cccnc5)c4)s3)nc2c1`, for which the XC50 (Plasmodium falciparum, 3D7) worked out at 170 nM. Turning to `CC(C)c1nc(N2CCN(C(=S)NCc3ccccc3)CC2)c(C#N)c2c1COC(C)(C)C2`, for the setting “Plasmodium falciparum, 3D7”, the XC50 stood at 142 nM. Still for that read-out and setting: in the case of `N#Cc1ccc(CN2CCCN(Cc3cccc(NC(=O)c4cc5ccccc5s4)c3)CC2)cc1` it was 907 nM. Still for that read-out and setting: then `Cc1ccc(CC(C)NCC(O)c2cccc(Cl)c2)cc1F` (stereo not drawn), with 742 nM. The same measure, in the same setting: then `Oc1ccccc1CN1CCC2(CCCN(Cc3ccccc3F)C2)C1` (stereo not drawn), with 679 nM; and `O=C(Nc1ccc(OC2CCN(Cc3ccsc3)C2)c(Cl)c1)c1cccs1` (stereo not drawn), with 960 nM; and `COc1ccc(Cl)cc1S(=O)(=O)Nc1cccc(CCN2CCC(N3CCCCC3)CC2)c1`, with 704 nM.

For the compound `COc1ccc2nccc([C@@H](O)CN3CCC(NC(=O)/C=C/c4cc([N+](=O)[O-])ccc4OC)CC3)c2c1`, under “Plasmodium falciparum, 3D7”, the XC50 is 258 nM. Consider `CCOc1c(OC)ccc2c1CCN(CCN1CCC(CNC(=O)c3ccc(-c4ccc(C#N)cc4)cc3)CC1)C2`, for which the XC50 (Plasmodium falciparum, 3D7) stood at 1080 nM. Same read-out and setting: in the case of `Cc1ccc2[nH]c(C3CCCNC3)c(-c3ccncc3)c2c1` (stereo not drawn) it was 1230 nM.

The compound `Cn1nccc1C(=O)NCCNCc1cccc(-c2cccc(-c3nc4cc(F)ccc4[nH]3)c2)c1` yielded an XC50 (Plasmodium falciparum, 3D7) of 261 nM. `S=C(NCCc1ccc(Cl)cc1)NC1CCC(CN2CCC(c3c[nH]c4ccccc34)CC2)CC1` (stereo not drawn) displayed an XC50 of 703 nM. The XC50 (Plasmodium falciparum, 3D7) came out at 703 nM.

Consider `CC(C)C[C@@H](C(=O)Nc1ccc(Cc2ccc(NC(=O)[C@H](CC(C)C)N(C)C(=O)OC(C)(C)C)cc2)cc1)N(C)C(=O)OC(C)(C)C`, for which, where the note is “Plasmodium falciparum, 3D7”, the XC50 is 821 nM. Under “Plasmodium falciparum, 3D7”, `O=C(CCCCCNC(=O)c1ccc(O)c(-c2ccc(Cl)c(Cl)c2)c1)NCc1cccc(C(F)(F)F)c1` came in with an XC50 of 731 nM. Same read-out and setting: then `N#Cc1ccc(-n2cc(C(=O)Nc3ccc4c(c3)CCN(C3CCC3)CC4)c(C(F)(F)F)n2)cc1`, with 290 nM. The same measure, in the same setting: then `CC(C)(C)OC(=O)/C=C(\C(=O)OCc1ccc([N+](=O)[O-])cc1)c1csc(NC(c2ccccc2)(c2ccccc2)c2ccccc2)n1`, with 861 nM; and `O=C(NCc1ccc2c(c1)OCO2)c1nn(CCN2CCC(N3CCCC3)CC2)cc1-c1ccc(Cl)c(Cl)c1`, with 935 nM; and `CCN1CCN(Cc2ccc3nc(-c4cc(C)n(Cc5cc(Cl)ccc5OCc5ccccc5)n4)[nH]c3c2)CC1`, with 770 nM. Regarding `OC(CNCc1ccccc1)c1cc(OCc2ccccc2)cc(OCc2ccccc2)c1` (stereo not drawn), the XC50 (Plasmodium falciparum, 3D7) is 1000 nM. On the same count and under the same terms, in the case of `Cc1ccccc1C1CCN(C2CCC(NC(=O)/C=C/c3ccc(C(F)(F)F)cc3)CC2)CC1` (stereo not drawn) it was 1040 nM. Compound `CN(C)c1ccc(C(c2ccc(N(C)C)cc2)c2cc([N+](=O)[O-])ccc2Cl)cc1` gave an XC50 (Plasmodium falciparum, 3D7) of 911 nM. Still for that read-out and setting: then `CN(C)CC(=O)Nc1ccc(-c2ccc3ccnc(N)c3c2)cc1`, with 33.1 nM.

Under “Plasmodium falciparum, 3D7”, `CC(C)CNCc1cccc(-c2cccc(CN(CCCN3CCN(C)CC3)C(=O)CCC3CCCC3)c2)c1` displayed an XC50 of 624 nM. Still for that read-out and setting: then `COc1cc2nc(N3CCC(CNC(=O)/C=C/c4cccc(C)c4)CC3)nc(N)c2cc1OC`, with 684 nM; and `Cc1ccccc1CNC(=O)Nc1cccc(-c2csc(NC(=N)N)n2)c1`, with 700 nM. On the same count and under the same terms, then `CCCNCc1ccc(-c2ccc(CNC3Cc4ccccc4C3)cc2)nc1`, with 848 nM; and `N#Cc1cccc(NC(=O)NC2CCN(CCCCCNC(=O)C3CC3c3ccc(Cl)c(Cl)c3)CC2)c1` (stereo not drawn), with 785 nM.

The compound `c1ccc(CNCCn2c(-c3ccc4c(c3)CCO4)nc3c(N4CCCC4)cccc32)cc1` returned an XC50 (Plasmodium falciparum, 3D7) of 1130 nM. `CCCCC1=CC2C(=O)C(C(=O)OC)=CN=C2C=C1OCc1ccccc1` (stereo not drawn) showed an XC50 (Plasmodium falciparum, 3D7) of 42.2 nM.

As for `CCc1ccccc1NC(=O)CN1CCN(c2ncnc3scc(-c4ccc(F)cc4)c23)CC1`, the XC50 (Plasmodium falciparum, 3D7) amounted to 702 nM.

Turning to `Cc1ccc(O)c(C(=O)c2cc(C(=O)Nc3ccccc3C)c(=O)n(-c3ccccc3C)c2)c1`, under “Plasmodium falciparum, 3D7”, the XC50 was 784 nM.

Compound `COc1ccc(-c2ccc(NC(=O)c3cccc(F)c3)cc2)cc1CNC(C)C` had an XC50 (Plasmodium falciparum, 3D7) of 808 nM. `CC(C)c1ccc(CN2CCC(NC(=O)c3ccc(-c4cccc(Cl)c4)s3)CC2)cc1` came in with an XC50 (Plasmodium falciparum, 3D7) of 1430 nM. With `O=C(/C=C/c1ccc(Cl)c(Cl)c1)NC1CCC(CN2CCC(Cc3c[nH]c4ccccc34)CC2)CC1` (stereo not drawn), the XC50 (Plasmodium falciparum, 3D7) is 888 nM. Still for that read-out and setting: in the case of `COc1ccc(-c2cnc3ccc(NCc4ccc(F)cc4)nn23)cc1OC` it was 834 nM; in that of `COc1ccccc1N1CCN(c2cccc(F)c2C#N)CC1`, 965 nM; in that of `CC(C)CNCc1ccc(-c2ccc(CN(C(=O)NCCc3ccccc3)C3CCN(Cc4ccccc4)CC3)cc2)cc1`, 699 nM.

Where the note is “Plasmodium falciparum, 3D7”, `O=C(Nc1ccc(F)cc1)NC1CCN(CCCCCNC(=O)C2CC2c2ccc(Cl)c(Cl)c2)CC1` (stereo not drawn) came in with an XC50 of 987 nM. Same read-out and setting: in the case of `O=C(NC1CC1)c1ccc2cc(C(=O)N3Cc4ccccc4C(c4ccccc4)C3)ccc2c1` (stereo not drawn) it was 910 nM; in that of `Nc1nc(N)c2c(ccn2Cc2cc3c(cc2Cl)OCO3)n1`, 765 nM; in that of `CC(C)(C)c1ccc(S(=O)(=O)Nc2ccccc2N2CCOCC2)cc1`, 683 nM. As for `O=C(C=Cc1ccc(Cl)c(Cl)c1)NCCCCCN1CCC(CCCNC(=O)c2ccc3c(c2)OCO3)CC1`, the XC50 (Plasmodium falciparum, 3D7) was found to be 149 nM.

Where the note is “Plasmodium falciparum, 3D7”, `COc1ccc(F)cc1-c1ccccc1CNC(=O)c1cnn(-c2ccc([N+](=O)[O-])cc2)c1C(F)(F)F` showed an XC50 of 596 nM.

Where the note is “Plasmodium falciparum, 3D7”, `Oc1ccccc1Nc1nc(NCc2ccco2)c2ccccc2n1` returned an XC50 of 644 nM. Same read-out and setting: then `O=C(/C=C/c1ccc(Cl)c(Cl)c1)NCCCCCN1CCC(NC(=O)NC2CCCCC2)CC1`, with 557 nM; and `COC(=O)CN(C(=O)/C=C/c1ccc(Cl)c(Cl)c1)C1CCC(CN2CCC(c3c[nH]c4ccccc34)CC2)CC1` (stereo not drawn), with 507 nM.

Take `CN1CCN(Cc2ccc(-c3ccc4c(Nc5cc(O)c(F)cc5Cl)ccnc4c3)o2)CC1`: the XC50 (Plasmodium falciparum, 3D7) is 132 nM. Compound `CCn1c(-c2nonc2N)nc2c(-c3cccc(NC(=O)Nc4cccc(OC)c4)c3)ncc(OCCCN)c21` had an XC50 (Plasmodium falciparum, 3D7) of 769 nM. The same measure, in the same setting: then `Cc1ccc(Nc2nc(C)cc(Nc3cccc(C#N)c3)n2)cc1`, with 978 nM; and `CC(C)Cc1nc(N2CCOCC2)c2nnn(Cc3ccccc3)c2n1`, with 508 nM; and `N=C(N)c1ccc(-c2cc(-c3cccc(C(=N)N)c3)on2)cc1`, with 13.8 nM. Same read-out and setting: in the case of `CO/C(=C\C=C\c1cc2cc(Cl)c(Cl)cc2[nH]1)C(=O)NCCCN1CCN(c2ccncc2)CC1` it was 733 nM; in that of `CC(CNC(=N)c1cccc(C(=N)NCC(C)Oc2cccc(C3CCCCC3)c2)n1)Oc1cccc(C2CCCCC2)c1` (stereo not drawn), 917 nM; in that of `Cc1nc(-c2nc(N3CCC(C(N)=O)CC3)ncc2-c2ccsc2)sc1C`, 902 nM. The compound `Cc1cc(CNC(=O)[C@H](CC2CCCCC2)Nc2ccc(C#N)c3ccccc23)c(C(F)(F)F)o1` displayed an XC50 (Plasmodium falciparum, 3D7) of 1180 nM. Still for that read-out and setting: then `COc1ccc(-c2ccc(CNCc3ccccc3)cc2)cc1S(=O)(=O)NCCN1CCCC1`, with 726 nM; and `CC(CNC1CCN(CCn2c(=O)ccc3ccc(F)cc32)CC1)c1ccccc1` (stereo not drawn), with 1270 nM; and `O=C(Nc1cccc(F)c1)c1ccc(C(=O)NC2CCN(CC3CCCCC3)CC2)cc1`, with 863 nM. Under “Plasmodium falciparum, 3D7”, `Cc1cnc(CN(Cc2ccc(-c3ccc(CNCCc4ccc(S(C)(=O)=O)cc4)cn3)cc2)C(=O)c2ccc([N+](=O)[O-])c(C)c2)cn1` displayed an XC50 of 919 nM.

For the setting “Plasmodium falciparum, 3D7”, `N=C(N)NC(=O)Nc1cc(Cl)c(Cl)c(Br)c1` gave an XC50 of 611 nM.

On to `COc1cc2nc(Nc3ccc(C)cc3)nc(Nc3ccc(C)cc3)c2cc1OC`, for which, under “Plasmodium falciparum, 3D7”, the XC50 came out at 139 nM. Same read-out and setting: then `CCOc1cc2ncnc(Nc3ccc(OCc4ccccc4Br)c(OC)c3)c2cc1OCC`, with 467 nM. On the same count and under the same terms, in the case of `COc1ccc2c(=NN=CC=Cc3ccccc3)cc(C)[nH]c2c1` it was 842 nM; in that of `Cc1ccoc1C(=O)Nc1cccc(-c2cccc(-c3nc4cc(C(F)(F)F)ccc4[nH]3)c2)c1`, 613 nM. The same measure, in the same setting: in the case of `N#Cc1ccc(CN2CCC(Oc3ccc(NC(=O)c4ccco4)cc3Cl)CC2)cc1` it was 379 nM.
